Results: patent US9394299B2, “Rilyazine derivatives and compositions for the treatment of cancer” (Warner Babcock Institute for Green Chemistry, LLC, priority 2013, dated 2016)
Entries after “also recorded” stand apart in the source; their conditions may differ. Where two headings read alike, the source gives them in different places.

Test system: 60 cell lines (human tumor cell lines of the cancer screening panel)
Assay: NCI 60 cell line screening, single point dosing at 10 μM (SRB)
Type: cell-based
Conditions: for GI50: Homo sapiens, read-out: GI50 (NCI Results, single point, 10 μM); for Delta of Growth Percent across all cell lines / Mean Growth Percent across all cell lines: single dose 10^−5 M
Protocol: The screening is a two-stage process, beginning with the evaluation of all compounds against 60 cell lines at a single dose of 10^−5 M.
The human tumor cell lines of the cancer screening panel are grown in RPMI 1640 medium containing 5% fetal bovine serum and 2 mM L-glutamine. Cells are inoculated into 96 well microtiter plates in 100 μL at plating densities ranging from 5,000 to 40,000 cells/well depending on the doubling time of individual cell lines. After cell inoculation, the microtiter plates are incubated at 37° C., 5% CO2, 95% air and 100% relative humidity for 24 h prior to addition of experimental drugs.
After 24 h, two plates of each cell line are fixed in situ with TCA, to represent a measurement of the cell population for each cell line at the time of drug addition Time Zero (Tz). Experimental drugs are solubilized in dimethyl sulfoxide:glycerol 9:1 at 400-fold the desired final maximum test concentration and stored frozen at −70° C. prior to use. At the time of drug addition, an aliquot of frozen concentrate is thawed and diluted to twice the desired final maximum test concentration with complete medium containing 50 μg/ml gentamicin. Additional four, 10-fold or ½ log serial dilutions are made to provide a total of five drug concentrations plus control. Aliquots of 100 μl of these different drug dilutions are added to the appropriate microtiter wells already containing 100 μl of medium, resulting in the required final drug concentrations.
Positive control is prepared by adding the known anti-tumor agent adriamycin, NSC 123127, prepared and stored the same as the compounds for testing.
Following drug addition, the plates are incubated for an additional 48 h at 37° C., 5% CO2, 95% air, and 100% relative humidity. For adherent cells, the assay is terminated by the addition of cold TCA. Cells are fixed in situ by the gentle addition of 50 μl of cold 50% (w/v) TCA (final concentration, 10% TCA) and incubated for 60 minutes at 4° C. The supernatant is discarded, and the plates are washed five times with tap water and air dried. Sulforhodamine B (SRB) solution (100 μl) at 0.4% (w/v) in 1% acetic acid is added to each well, and plates are incubated for 10 minutes at room temperature. After staining, unbound dye is removed by washing five times with 1% acetic acid and the plates are air dried. Bound stain is subsequently solubilized with 10 mM trizma base, and the absorbance is read on an automated plate reader at a wavelength of 515 nm. For suspension cells, the methodology is the same except that the assay is terminated by fixing settled cells at the bottom of the wells by gently adding 50 μl of 80% TCA (final concentration, 16% TCA).
For the 1-dose 60 cell testing, the Growth Percent is calculated for each cell line/drug combination from the absorbance measurement for the no-drug control (C), the absorbance at time zero (Tz) and the absorbance measurement after incubation of the cells in the presence of drug (Ti): Growth Percent=[(Ti−Tz)/(C−Tz)]×100 for cell line/drug combinations for which Ti≧Tz. Growth Percent=[(Ti−Tz)/Tz]×100 for cell line/drug combinations for which Ti<Tz.
Calculation of the Growth Percent by these equations allows detection of both growth inhibition (Growth Percent values between 0 and 100) and lethality (Growth Percent values less than 0). For example, a Growth Percent value of 100 means no growth inhibition. A Growth Percent value of 40 would mean 60% growth inhibition. A Growth Percent value of 0 means no net growth over the course of the experiment, or “cytostatic”, no change by growth or cell death. A Growth Percent value of −40 would mean 40% lethality. A Growth Percent value of −100 means all cells are dead.
For 1-dose 60 cell testing, the Mean Growth Percent, Delta and Range across all 60 cell lines are also calculated. The Deviation of each cell line/drug combination from the Mean is also calculated and plotted: Deviation=Mean Growth Percent−Growth Percent […]

[1] = single point 10 μM, 60 cell lines

| SMILES | GI50 [1] [µM] | Delta of Growth Percent across all cell lines (60 cell lines) | Mean Growth Percent across all cell lines (60 cell lines) [%] | anti-proliferative effect / growth inhibition (in words) [1] | GI50 (60 cell) [µM] |
| --- | --- | --- | --- | --- | --- |
| S=c1c2cccnc2c(-c2ccccn2)nn1C1CCCCC1 [RL-2, 6-cyclohexyl-8-(pyridin-2-yl)pyrido[2,3-d]pyridazine-5(6H)-thione] | > 10 | 30.65 | 99.96 | little to no effect on cell growth; also recorded: little to no appreciable anti-proliferative effects |  |
| O=c1c2ncccc2c(-c2ccccn2)nn1C1CCCCC1 [RL-3, 7-Cyclohexyl-5-(pyridin-2-yl)pyrido[2,3-d]pyridazin-8(7H)-one] |  | 24.63 | 101.11 | little to no effect on cell growth; also recorded: little to no appreciable anti-proliferative effects | > 10 |
| O=c1c2cccnc2c(-c2ccccn2)nn1C1CCCCC1 [RL-1, 6-cyclohexyl-8-(pyridin-2-yl)pyrido[2,3-d]pyridazin-5(6H)-one] |  | 11.75 | 104.31 | little to no effect on cell growth; also recorded: little to no appreciable anti-proliferative effects | > 10 |
